In patent US9340574B2, “Inhibitors of protein tyrosine phosphatases” (Indiana University Research and Technology Corporation, priority 2012, dated 2016):

Target: PTP-MEG1 (Homo sapiens (Human), UniProt P29074)
Test: pNPP hydrolysis enzyme assay, PTP-MEG1
Format: biochemical
Protocol: Enzyme kinetic assay. PTP activity was assayed using p-nitrophenyl phosphate (pNPP) as a substrate in 3,3-dimethylglutarate buffer (50 mM 3,3-dimethylglutarate, pH 7.0, 1 mM EDTA, 150 mM NaCl, 2 mM DTT, 0.1 mg/mL BSA) at 25° C. The assays were performed in 96-well plates. Normally, to determine the IC50 values, the reaction was initiated by the addition of enzyme (final concentration at 10 nM) to a reaction mixture (0.2 mL) containing 2 mM (Km for the substrate) pNPP with various concentrations of inhibitors. The reaction rate was measured using a SpectraMax Plus 384 Microplate Spectrophotometer (Molecular Devices). To determine the mode of inhibition, the reactions were initiated by the addition of PTP-MEG2 to the reaction mixtures (0.2 mL) containing various concentrations of pNPP with different concentrations of the inhibitor 7. Data were fitted using SigmaPlot Enzyme Kinetics Module (Systat Software, Inc.).

Sequence of PTP-MEG1 (P29074 whole entry): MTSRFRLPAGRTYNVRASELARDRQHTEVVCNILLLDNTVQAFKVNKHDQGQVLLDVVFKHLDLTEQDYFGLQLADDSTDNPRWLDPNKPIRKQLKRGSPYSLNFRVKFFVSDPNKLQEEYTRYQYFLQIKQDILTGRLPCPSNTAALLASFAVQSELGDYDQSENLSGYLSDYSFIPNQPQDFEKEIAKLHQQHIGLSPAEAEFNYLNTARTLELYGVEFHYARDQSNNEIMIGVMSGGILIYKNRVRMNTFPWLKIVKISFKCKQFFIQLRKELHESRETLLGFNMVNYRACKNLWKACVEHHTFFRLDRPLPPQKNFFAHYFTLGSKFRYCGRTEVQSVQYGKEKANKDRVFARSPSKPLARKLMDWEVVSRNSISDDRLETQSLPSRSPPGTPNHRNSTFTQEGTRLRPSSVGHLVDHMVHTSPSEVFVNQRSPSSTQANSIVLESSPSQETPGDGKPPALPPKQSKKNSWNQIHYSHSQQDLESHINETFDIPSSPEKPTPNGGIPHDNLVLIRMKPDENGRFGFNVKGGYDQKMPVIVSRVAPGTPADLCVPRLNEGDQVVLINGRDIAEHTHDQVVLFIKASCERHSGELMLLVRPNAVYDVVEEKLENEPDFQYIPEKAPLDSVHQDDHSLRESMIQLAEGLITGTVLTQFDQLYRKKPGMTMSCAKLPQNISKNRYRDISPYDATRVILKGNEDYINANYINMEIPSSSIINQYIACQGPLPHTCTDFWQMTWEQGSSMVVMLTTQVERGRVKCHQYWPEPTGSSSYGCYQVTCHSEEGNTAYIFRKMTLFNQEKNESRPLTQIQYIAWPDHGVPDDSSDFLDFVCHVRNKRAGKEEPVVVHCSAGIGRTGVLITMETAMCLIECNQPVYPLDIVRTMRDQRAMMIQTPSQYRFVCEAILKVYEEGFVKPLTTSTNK

## COc1cc(CC(=O)NCC(NC(=O)C(CCCNC(=O)c2cccc(I)c2)NC(=O)C(Cc2ccc(C(F)(F)P(=O)(O)O)cc2)NC(=O)c2ccc(C)c(Br)c2)C(N)=O)ccc1O (stereo not shown) [Compound 7]
  IC50: > 10000 nM
